Experimental findings from patent US4654368A, “Tri-organotin silatrane derivatives and pesticidal compositions, fungicides or antifouling agents comprising said compounds as active ingredients” (Nitto Kasei Co., Ltd., priority 1984, dated 1987) are described below.

Holding throughout (type): in vivo
Data set [1] concerns carmine mites (Tetranychus telarius L.). Description: Miticidal effect on carmine mites. The arrangement: key: -: Hardly any injury was observed.; +: Some injury was observed.; ++: The same injury as in the non-treated area was noted. The following applies: 500 ppm active ingredient, spray plus soil, kidney beans, 8 days later. As to the method:
Female imagoes of carmine mites were caused to live at a rate of 10 per leaf on bineless kidney beans (in the primary leaf stage) in pots 7 days after sowing, and kept in a constant temperature chamber at 25° C. Six days later, a chemical obtained by diluting a wettable powder of each of compounds Nos. 4-6, 9-13, 15, 16, 21, 22, 25, 28-30, 33, 34, 36, 37 and 38 with water to an active ingredient concentration of 500 ppm was sprayed at a rate of 10 ml per pot, and at the same time, 2 ml of the chemical was poured into the soil. Eight days later, injuries to the plants by the mites were examined.
The degree of injury is shown by -, + and ++ as follows: […]

Data set [2] deals with tobacco cutworms (Prodenia litura Fabrficius). The experiment in a line: Test on insecticidal efficacy on tobacco cutworms. The note with it: 500 ppm in artificial feed, 4th-instar larvae, 6 days; wettable powder of Formulation Example 5 (contains Fenitrothion). As to the method:
A wettable powder of each of compounds Nos. 3, 7, 8, 9, 11, 12, 13, 14, 17, 18 and 31 of the invention obtained in accordance with Formulation Example 5 was diluted with water to 200 times (corresponding to a concentration of 500 ppm). Two milliliters of the dilution was impregnated in 13 g of an artificial feed for tobacco cutworms, and the feed was put in a polyethylene cup having a diameter of 11 cm. Ten 4th-instar larvae of tobacco cutworms were released into the cup, and examined for mortality 6 days later. The above experiment was carried out through two replicates.

In data set [3] the test system is Culex pipiens. Description: Test on insecticidal effect on Culex pipiens. The note with it: 3.5 ppm, wettable powder of Formulation Example 5 (contains Fenitrothion); for Death rate: final-instar larvae, next day, 1440 min; for Emergence inhibition rate: when all larvae in non-treated area emerged. As to the method: A wettable powder of each of compounds Nos. 2, 7, 8, 11, 13, 14, 17, 18 and 31 obtained in accordance with Formulation Example 5 was diluted with water to 3.5 ppm. One hundred milliliters of the dilution was put in each of 180 ml. polyethylene cups and 20 final-instar larvae of Culex pipiens were released into the cup. On the next day, the larvae were examined for mortality.
Thereafter, feeds were added to the test areas, and when all larvae n the non-treated area emerged, the emergence inhibition rate was examined.
The death rate and the emergence inhibition rate were rated by three grades as follows: […]

For data set [4], the system named is Plasmopara viticola. The experiment in a line: Test on fungicidal effect on downy mildew of grape. The note with it: sprayed on grape seedlings. The text has this: Sandy soil was filled in plastic pots, and seeds of grape (variety: Neomuscat) were sown, and grown for about 1 month in a greenhouse to obtain young seedlings of grape in the 2-3 leaf stage. A water dilution of an emulsifiable concentrate of a wettable powder of each of the test compounds was sprayed onto the leaves of these seedlings so that the chemical adhered fully to the surfaces of the leaves. After drying the chemical in air, a suspension of conidospores of a […] pathogen of grape (Plasmopara viticola) was inoculated in the seedling by spraying. The seedlings were placed for 2 days in a high humidity condition at 23° C., and subsequently cultivated for 14 days in a greenhouse kept at 20° to 25° C. to cause onset of the disease. Thereafter, the state of the disease was observed.
The degree of disease was calculated by the following method. The examined leaves were classified by indices of 0, 0.5, 1, 2 and 4 according to the degrees of appearance of lesions, and the degree of disease was calculated from the following equation.
0: No fungus colony or lesion was noted on the surface of the leaves.
The control index was calculated from the following equation. [formula]

The test system of data set [5] is marine animals and plants. Description: Test on antifouling effects on marine animals and plants in the sea. The note with it: Owase Bay; for Fouled state, period of submerging 4 months / Fouled state, period of submerging 8 months / Fouled state, period of submerging 12 months: antifouling paint on vinyl chloride plate. The method, then:
A ship bottom antifouling paint was prepared by adding 24 g of Rosin WW, 12 g of a vinyl copolymer, 4 g of tricresyl phosphate, 10 g of bentonite, 20 g of baryta, 20 g of red iron oxide, 35 g of xylene and 35 g of methyl isobutyl ketone to 40 g of each of compounds Nos. 2, 8, 14, 17, 20 and 32 of the invention and vigorously stirring the mixture at room temperature for 1 hour. The paint was coated on both surfaces of a rigid vinyl chloride resin plate, 17×9×0.3 cm in size, to a dry thickness of about 200 microns. The coated plate was submerged in the sea in Owase Bay, Mie Prefecture, Japan for 12 months, and its fouled state was regularly observed.
The symbols in the table show the following.

`CCC1CN2CCO[Si](CCC[S][Sn]([CH]3CCCCC3)([CH]3CCCCC3)[CH]3CCCCC3)(OCC2)O1` (centres unmarked) [compound 36]: the Degree of injury entry in data set [1] is on record as “-~+”.

In the case of `C1CC[CH]([Sn]([S]CC[Si]23OCCN(CCO2)CCO3)([CH]2CCCCC2)[CH]2CCCCC2)CC1` [compound 7], in data set [2], the Death rate amounted to 100%. In data set [3], the Death rate result is listed as “C (less than 10%)” and the Emergence inhibition rate result was “A (90% or higher)”.

Take `CC(C)([CH2][Sn]([CH2]C(C)(C)c1ccccc1)([CH2]C(C)(C)c1ccccc1)[S]CC[Si]12OCCN(CCO1)CCO2)c1ccccc1` [compound 5]: in data set [1], the Degree of injury result is “-~+”.

For the compound `c1cc[c]([Sn]([S]CCC[Si]23OCCN(CCO2)CCO3)([c]2ccccc2)[c]2ccccc2)cc1` [compound 1], the Control index in data set [4] (12.5 ppm active ingredient) was found to be 97%; in data set [4] (50 ppm active ingredient) it was 100%; in data set [4] (200 ppm active ingredient) it was 100%.

The compound `CCO[PH](=O)O` [reference compound] had a Control index in data set [4] (200 ppm active ingredient) of 68%.

For the compound `CCCCCCC[CH2][Sn]([CH2]CCCCCCC)([CH2]CCCCCCC)[S]CCC[Si]12OCCN(CCO1)CCO2` [compound 15], the Degree of injury entry in data set [1] is “-”.

Consider `CC(C)(C)[CH2][Sn]([CH2]C(C)(C)C)([CH2]C(C)(C)C)[S]CC[Si]12OCCN(CCO1)CCO2` [compound 38], for which, in data set [1], the Degree of injury entry is listed as “-”.

In the case of `CCC1CN2CCO[Si](CCC[S][Sn]([CH2]C(C)(C)c3ccccc3)([CH2]C(C)(C)c3ccccc3)[CH2]C(C)(C)c3ccccc3)(OCC2)O1` (centres unmarked) [compound 33], the Degree of injury entry in data set [1] is given as “-”.

In the case of `CCC1CN2CCO[Si](CCC[S][Sn]([CH2]C(C)C)([CH2]C(C)C)[CH2]C(C)C)(O1)OC(CC)C2` (centres unmarked) [compound 28], the Degree of injury entry in data set [1] is listed as “-”.

Take `c1cc[c]([Sn]([S]CC[Si]23OCCN(CCO2)CCO3)([c]2ccccc2)[c]2ccccc2)cc1` [compound 2, 1-(2-triphenylstannylthioethyl)silatrane]: in data set [5], the “Fouled state, period of submerging 4 months” value is “.circle”; the “Fouled state, period of submerging 8 months” value is “.circle”; the “Fouled state, period of submerging 12 months” value is “.circle”. In addition, in data set [3], the Death rate entry is given as “B (less than 90% to 10%)” and the Emergence inhibition rate entry is “A (90% or higher)”.

Turning to `CCCCCCC[CH2][Sn]([CH2]CCCCCCC)([CH2]CCCCCCC)[S]CCC[Si]12OC(C)CN(CC(C)O1)CC(C)O2` (centres unmarked) [compound 30], in data set [1], the Degree of injury result is listed as “-”.

As to `CC1CN2CC(C)O[Si](CCC[S][Sn]([c]3ccccc3)([c]3ccccc3)[c]3ccccc3)(O1)OC(C)C2` (centres unmarked) [compound 9, 1-(3-triphenylstannylthiopropyl)-3,7,10-trimethylsilatrane], the Degree of injury entry in data set [1] is reported as “-”. The same compound came in with a Death rate in data set [2] of 100%. The values for the Control index in data set [4] (12.5 ppm active ingredient), in data set [4] (50 ppm active ingredient) and in data set [4] (200 ppm active ingredient) were 98%, 100% and 100%, respectively.

`CC(C)([CH2][Sn]([CH2]C(C)(C)c1ccccc1)([CH2]C(C)(C)c1ccccc1)[S]CCC[Si]12OCCN(CCO1)CCO2)c1ccccc1` [compound 4, 1-(3-trineophylstannylthiopropyl)silatrane]: in data set [1], the Degree of injury entry was “-”.

With `CCC1CN2CC(C)O[Si](CCC[S][Sn]([CH2]C(C)(C)c3ccccc3)([CH2]C(C)(C)c3ccccc3)[CH2]C(C)(C)c3ccccc3)(OC(C)C2)O1` (centres unmarked) [compound 34], the Degree of injury entry in data set [1] was “-”.

In the case of `CCC[CH2][Sn]([CH2]CCC)([CH2]CCC)[S]CCC[Si]12OCCN(CCO1)CC(CC)O2` (centres unmarked) [compound 25], the Degree of injury entry in data set [1] was “-~+”.

`CC1CN2CC(C)O[Si](CCC[S][Sn]([CH2]C(C)(C)c3ccccc3)([CH2]C(C)(C)c3ccccc3)[CH2]C(C)(C)c3ccccc3)(O1)OC(C)C2` (centres unmarked) [compound 10]: the Degree of injury result in data set [1] is “-”.

On to `C1CC[CH]([Sn]([S]CCC[Si]23OCCN(CCO2)CCO3)([CH]2CCCCC2)[CH]2CCCCC2)CC1` [compound 13], for which the Degree of injury entry in data set [1] is listed as “-”. The Death rate is 100% in data set [2] and “A (90% or higher)” in data set [3]. Also, the Emergence inhibition rate entry in data set [3] is given as “A (90% or higher)”.

`CC1CN2CC(C)O[Si](CC[S][Sn]([CH2]C(C)(C)c3ccccc3)([CH2]C(C)(C)c3ccccc3)[CH2]C(C)(C)c3ccccc3)(O1)OC(C)C2` (centres unmarked) [compound 6]: in data set [1], the Degree of injury result is on record as “-~+”.

As for `CC1CN2CC(C)O[Si](CCC[S][Sn]([CH]3CCCCC3)([CH]3CCCCC3)[CH]3CCCCC3)(O1)OC(C)C2` (centres unmarked) [compound 11], the Degree of injury entry in data set [1] is “-”. Besides, the values for the Death rate in data set [2] and in data set [3] were 100% and “B (less than 90% to 10%)”, respectively. The Emergence inhibition rate entry in data set [3] is listed as “A (90% or higher)”. The Control index is reported as 96% in data set [4] (12.5 ppm active ingredient), 100% in data set [4] (50 ppm active ingredient) and 100% in data set [4] (200 ppm active ingredient).

In the case of `CCCCCCC[CH2][Sn]([CH2]CCCCCCC)([CH2]CCCCCCC)[S]CCC[Si]12OCCN(CCO1)CCO2` [compound 29], the Degree of injury entry in data set [1] is recorded as “-~+”.

Consider `CCC1CN2CC(C)O[Si](CCC[S][Sn]([CH]3CCCCC3)([CH]3CCCCC3)[CH]3CCCCC3)(OC(C)C2)O1` (centres unmarked) [compound 37], for which the Degree of injury result in data set [1] is reported as “-”.

In data set [2], `CC1CN2CC(C)O[Si](CC[S][Sn]([c]3ccccc3)([c]3ccccc3)[c]3ccccc3)(O1)OC(C)C2` (centres unmarked) [compound 3] came in with a Death rate of 100%. For the same compound, the Control index in data set [4] (12.5 ppm active ingredient) came to 98%; in data set [4] (50 ppm active ingredient), 100%; in data set [4] (200 ppm active ingredient), 100%.

For `CCCCCCC[CH2][Sn]([CH2]CCCCCCC)([CH2]CCCCCCC)[S]CCC[Si]12OC(C)CN(CC(C)O1)CC(C)O2` (centres unmarked) [compound 16], the Degree of injury entry in data set [1] is reported as “-”.

In turn, `CCC1CN2CCO[Si](CCC[S][Sn]([c]3ccccc3)([c]3ccccc3)[c]3ccccc3)(OCC2)O1` (centres unmarked) [compound 31] yielded a Death rate in data set [2] of 100%. In addition, in data set [3], the Death rate result is “B (less than 90% to 10%)” and the Emergence inhibition rate entry is given as “A (90% or higher)”.

Take `CCC1CN2CCO[Si](CCC[S][Sn]([CH]3CCCCC3)([CH]3CCCCC3)[CH]3CCCCC3)(O1)OC(CC)C2` (centres unmarked) [compound 22]: the Degree of injury entry in data set [1] is on record as “-~+”.

Regarding `CCC1CN2CCO[Si](CCC[S][Sn]([CH2]C(C)(C)c3ccccc3)([CH2]C(C)(C)c3ccccc3)[CH2]C(C)(C)c3ccccc3)(O1)OC(CC)C2` (centres unmarked) [compound 21], the Degree of injury entry in data set [1] is “-”.

`CCC1CN2CCO[Si](CCC[S][Sn]([c]3ccccc3)([c]3ccccc3)[c]3ccccc3)(O1)OC(CC)C2` (centres unmarked) [compound 20]: in data set [5], the “Fouled state, period of submerging 4 months” value was “.circle”; the “Fouled state, period of submerging 8 months” value is reported as “.circle”; the “Fouled state, period of submerging 12 months” value is “Δ (Marine animals and plants adhered to less than 5% of the area of the coated film)”. Moreover, the “Fouled by” value in data set [5] (antifouling paint, up to 12 months) is recorded as “Algae”.
